Measurements taken from ChEMBL document CHEMBL3885861, “Open TG-GATES”.

Species on record: Rattus norvegicus
Test: Open TG-GATES - Regimen: Daily Repeat
Format: toxicity, organism-based, Sprague-Dawley
Parameters: regimen Daily Repeat, gender Male, age 6 weeks
Settings: in vivo, po, 25 mg/kg, route gavage, dose level Middle; for APTT / Bas / Eos / Fbg / Hb / Ht / Lym / MCH / MCHC / MCV / Mono / Neu / PT / Plat / RBC / Ret / WBC: tissue Blood; for KIDNEY_L / KIDNEY_R / KIDNEY_TOTAL: tissue Kidney; for LIVER: tissue Liver; for A/G / ALP / ALT / AST / BUN / CRE / Ca / Cl / DBIL / GLC / IP / K / LDH / Na / PL / RALB / TBIL / TC / TG / TP / gamma-GTP: tissue Plasma

## NC1=NC(=O)C(c2ccccc2)O1 (configuration not stated) [PEMOLINE]
72 h, time 3 day
  TERMINAL_BW: 222.4 g
  APTT: 16.7 s
  Bas: 0%
  Eos: 1%
  Fbg: 288.4 mg/dL
  Hb: 13.3 g/dL
  Ht: 39%
  Lym: 76.2%
  MCH: 21.3 pg
  MCHC: 33.9%
  MCV: 62.6 fL
  Mono: 3%
  Neu: 19.4%
  PT: 13 s
  Plat: 109.7 x10_4/uL
  RBC: 623.8 x10_4/ul
  Ret: 6.1%
  WBC: 79.9 x10_2/uL
  KIDNEY_L: 1 g
  KIDNEY_R: 0.9 g
  KIDNEY_TOTAL: 1.9 g
  LIVER: 9.9 g
  A/G: 0.9
  ALP: 1654.8 IU/L
  ALT: 41.8 IU/L
  AST: 72.6 IU/L
  BUN: 13.8 mg/dL
  CRE: 0.2 mg/dL
  Ca: 10.7 mg/dL
  Cl: 105.8 meq/L
  DBIL: 0.018 mg/dL
  GLC: 177.4 mg/dL
  IP: 7.5 mg/dL
  K: 4.1 meq/L
  LDH: 54.2 IU/L
  Na: 142.2 meq/L
  PL: 130.6 mg/dL
  RALB: 2.6 g/dL
  TBIL: 0.03 mg/dL
  TC: 79.8 mg/dL
  TG: 40 mg/dL
  TP: 5.4 g/dL
  gamma-GTP: 1 IU/L
[…], time 7 day
  TERMINAL_BW: 260.2 g
  APTT: 15.8 s
  Bas: 0%
  Eos: 1%
  Fbg: 268.6 mg/dL
  Hb: 13.4 g/dL
  Ht: 39.5%
  Lym: 73.4%
  MCH: 20.9 pg
  MCHC: 34%
  MCV: 61.5 fL
  Mono: 3%
  Neu: 21.8%
  PT: 13.1 s
  Plat: 116 x10_4/uL
  RBC: 642.2 x10_4/ul
  Ret: 5.8%
  WBC: 107.7 x10_2/uL
  KIDNEY_L: 1.1 g
  KIDNEY_R: 1.1 g
  KIDNEY_TOTAL: 2.3 g
  LIVER: 11.6 g
  A/G: 0.9
  ALP: 1546.6 IU/L
  ALT: 44.4 IU/L
  AST: 75.6 IU/L
  BUN: 15.6 mg/dL
  CRE: 0.2 mg/dL
  Ca: 10.4 mg/dL
  Cl: 104.4 meq/L
  DBIL: 0.016 mg/dL
  GLC: 179 mg/dL
  IP: 8 mg/dL
  K: 4.2 meq/L
  LDH: 75.6 IU/L
  Na: 142 meq/L
  PL: 141.6 mg/dL
  RALB: 2.5 g/dL
  TBIL: 0.024 mg/dL
  TC: 73.4 mg/dL
  TG: 117.8 mg/dL
  TP: 5.4 g/dL
  gamma-GTP: 1 IU/L
[…], time 14 day
  TERMINAL_BW: 319 g
  APTT: 16.6 s
  Bas: 0%
  Eos: 1%
  Fbg: 294.2 mg/dL
  Hb: 14.7 g/dL
  Ht: 42.4%
  Lym: 78.8%
  MCH: 21.3 pg
  MCHC: 34.7%
  MCV: 61.3 fL
  Mono: 2.6%
  Neu: 17.2%
  PT: 13.1 s
  Plat: 114.8 x10_4/uL
  RBC: 692.2 x10_4/ul
  Ret: 4.6%
  WBC: 86.6 x10_2/uL
  KIDNEY_L: 1.3 g
  KIDNEY_R: 1.3 g
  KIDNEY_TOTAL: 2.5 g
  LIVER: 14 g
  A/G: 0.8
  ALP: 1343.2 IU/L
  ALT: 46.6 IU/L
  AST: 72.2 IU/L
  BUN: 16.8 mg/dL
  CRE: 0.2 mg/dL
  Ca: 11.2 mg/dL
  Cl: 105.2 meq/L
  DBIL: 0.014 mg/dL
  GLC: 182.6 mg/dL
  IP: 8.7 mg/dL
  K: 4 meq/L
  LDH: 68.4 IU/L
  Na: 144.2 meq/L
  PL: 158.6 mg/dL
  RALB: 2.7 g/dL
  TBIL: 0.022 mg/dL
  TC: 83.6 mg/dL
  TG: 119.4 mg/dL
  TP: 6 g/dL
  gamma-GTP: 1 IU/L
[…], time 28 day
  TERMINAL_BW: 384.9 g
  APTT: 17.9 s
  Bas: 0.6%
  Eos: 1%
  Fbg: 269 mg/dL
  Hb: 15.9 g/dL
  Ht: 44.1%
  Lym: 80%
  MCH: 20.6 pg
  MCHC: 36.1%
  MCV: 57.1 fL
  Mono: 2.4%
  Neu: 15.2%
  PT: 12.7 s
  Plat: 109.5 x10_4/uL
  RBC: 771.4 x10_4/ul
  Ret: 2.6%
  WBC: 116.8 x10_2/uL
  KIDNEY_L: 1.4 g
  KIDNEY_R: 1.3 g
  KIDNEY_TOTAL: 2.7 g
  LIVER: 14.4 g
  A/G: 0.8
  ALP: 1018.2 IU/L
  ALT: 37.8 IU/L
  AST: 66.8 IU/L
  BUN: 16.6 mg/dL
  CRE: 0.2 mg/dL
  Ca: 11.2 mg/dL
  Cl: 105.2 meq/L
  DBIL: 0.016 mg/dL
  GLC: 179.4 mg/dL
  IP: 7.5 mg/dL
  K: 3.9 meq/L
  LDH: 76.8 IU/L
  Na: 143.4 meq/L
  PL: 134.4 mg/dL
  RALB: 2.7 g/dL
  TBIL: 0.03 mg/dL
  TC: 71.6 mg/dL
  TG: 134.8 mg/dL
  TP: 6.2 g/dL
  gamma-GTP: 1 IU/L
